Experimental data published in patent publication US8158655B2, “Sulfonamide derivatives” (Hoffmann-La Roche Inc., priority 2007, dated 2012).
Read-outs that look alike come from different tables or passages of the source.

Target: T1, Chymase purified from human skin mast cells (Homo sapiens, UniProt P23946)
T1 construct: Chymase purified from human skin mast cells was obtained from Calbiochem; purchased Calbiochem (Merck Biosciences, San Diego, Calif., USA); host or cells: human skin mast cells (natural source)
T1 sequence (P23946 22-247): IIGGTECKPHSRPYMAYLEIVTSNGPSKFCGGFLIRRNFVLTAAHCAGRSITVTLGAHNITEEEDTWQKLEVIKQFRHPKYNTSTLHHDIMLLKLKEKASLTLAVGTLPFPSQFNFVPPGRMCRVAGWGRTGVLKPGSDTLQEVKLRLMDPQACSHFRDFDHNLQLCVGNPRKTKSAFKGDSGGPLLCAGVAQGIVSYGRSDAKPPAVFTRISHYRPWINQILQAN
Experiment: chymase peptide substrate assay (AAPF-AMC fluorescence)
Format: biochemical
Description: The peptide was synthesized with a purity of 95% from Bachem, Bubendorf, Switzerland). Chymase purified from human skin mast cells was obtained from Calbiochem (Merck Biosciences, San Diego, Calif., USA). The assay buffer was 0.15 M NaCl, 0.05M, Tris HCl, 0.05% CHAPS (3-[(3-Cholamidopropyl)-dimethylammonio]-1-propane sulphonate), 0.1 mg/ml Heparin (Heparin sodium, Sigma, porcine intestinal mucosa), 0.02 mM AAPF-substrate, 1 nM Chymase at pH 7.4. The assay was performed in 96-well plates (Packard Optiplate), with a 0.05 ml volume at room temperature. Chymase activity was indicated by the initial rate of increase in fluorescence at 340/440 nm (excitation/emission) from free 7-amino-4-methylcoumarin released from the substrate. Inhibition of the activity by inhibitory compounds was read after 30 min pre-incubation with the chymase at room temperature in assay buffer without AAPF-substrate. The assay was then started by addition of the indicated concentration of AAPF-substrate.

[1] = 0.02 mM AAPF-substrate, 1 nM Chymase, pH 7.4, room temperature, 30 min pre-incubation, read-out: IC50

IC50 [nM]	IC50 [1] [nM]	Compound
35		Cc1c(S(=O)(=O)Nc2ccc(-c3ccncc3)cc2C(F)(F)F)sc2ccc(F)cc12 [Example 2, 5-Fluoro-3-methyl-benzo[b]thiophene-2-sulfonic acid(4-pyridin-4-yl-2-trifluoromethyl-phenyl)-amide]
	106	CCc1cc(-c2ccncc2)ccc1NS(=O)(=O)c1sc2ccc(F)cc2c1C [Example 16, 5-Fluoro-3-methyl-benzo[b]thiophene-2-sulfonic acid(2-ethyl-4-pyridin-4-yl-phenyl)-amide]
	3	Cc1c(S(=O)(=O)Nc2ccc(C3CCNCC3)cc2S(C)(=O)=O)sc2ccc(F)cc12 [Example 21, 5-Fluoro-3-methyl-benzo[b]thiophene-2-sulfonic acid(2-methanesulfonyl-4-piperidin-4-yl-phenyl)-amide]
